Broadly, the melting point is the temperature of the solid-liquid transition.

Ten compounds from patent US20230069886A1, “AROMATIC SULPHONAMIDES DERIVATIVES THAT INHIBITS PDI A3, THEIR SYNTHESIS AND USE” (Uniwersytet Jagiellonski, priority 2020, published 2023) can be followed below.

In data set [1] the test system is MDA-MB-231. The data set is described as follows: MTT antiproliferative assay, 48 h, MDA-MB-231. The conditions noted are these: for IC50: Homo sapiens, MDA-MB-231, 48-hour exposition, read-out: Cytotoxicity, IC50, μM MDA-MB-231. It is filed as cell-based, human. The procedure:
(§1) Anticancer activity of compounds of invention, PDI A3-inhibitors has been tested in vitro in classical antiproliferative assay in various cancer cells lines. Monolayer tumor cell lines MDA-MB-231 (human mammary breast adenocarcinoma), MCF-7 (human breast adenocarcinoma, estrogen-positive), HT-1080 (human fibrosarcoma) and Caco-2 (human colon adenocarcinoma) were cultured in standard medium DMEM (Dulbecco's modified Eagle's medium) (“Sigma”) supplemented with 10% foetal bovine serum (“Sigma”). About 2000-4000 cells per well (depending on line nature) were placed in 96-well plates and after 24 h compounds were added to the wells. Untreated cells were used as a control. The plates were incubated for 48 h, 37° C., 5% CO2. The number of surviving cells was determined using 3-(4,5-dimethylthiazol-2-yl)-2,5-diphenyltetrazolinium bromide (MTT). MTT-test: after incubating culture medium was removed and 200 μL fresh medium with 20 μL MTT (2 mg/mL in HBSS) was added in each well of the plate. After incubation (3 hr., 37° C., 5% CO2), the medium with MTT was removed and 200 μL DMSO were added at once to each sample. The samples were tested at 540 nm on Thermo Scientific Multiskan EX microplate photometer. The half-maximal inhibitory concentration (IC50) of each compound was calculated using Graph Pad Prism® 3.0.

In data set [2] the test system is MDA-MB-231. Description: Sulforhodamine B antiproliferative assay, 72 h, normal/hypoxia, MDA-MB-231. It is filed as cell-based, human. The conditions noted are these: 72 hours exposition; for IC50: Homo sapiens, MDA-MB-231. The procedure: (§2) Anticancer activity of selected compounds of invention, PDI A3-inhibitors has been also tested in vitro in antiproliferative assay in normoxic and hypoxic conditions as well in estrogen-stimulated cancer cells. In the experiment, cells were seeded on 96-well plates (Sarstedt, Germany) in appropriate culture medium at a density of 10^5 cells/mL 24 h before adding the tested compounds. Cells were treated with each compound in four concentrations in the range 0.1-100 μg/mL. […] After 72 h of compound treatment at 37° C., 5% CO2 humid atmosphere and in wo different oxygen level conditions: 21%—normal and <1%—hypoxia. In some experiments the MDA-MB-231 and MCF-7 cells were seeded with or without 200 nM estradiol and after 24 h the tested compounds were added. A previously described sulforhodamine B antiproliferative assay was used with minor modifications (Skehan P et al., 1990). Briefly, cells were fixed with 50 μL/well of 50% (w/v) trichloroacetic acid (Avantor Performance Materials, Gliwice, Poland). After 1 h incubation, plates were washed several times with tap water and 50 μL of 0.4% (w/v) solution of sulforhodamine B (Sigma-Aldrich, Germany) in 1% (v/v) acetic acid (Avantor Performance Materials, Gliwice, Poland) was added to each well. After 30 min incubation at room temperature, unbound dye was washed out with 1% (v/v) acetic acid, whereas bound dye was solubilized with 10 mM unbuffered TRIS (Avantor Performance Materials, Gliwice, Poland) solution. The entire procedure was performed using a BioTek EL-406 washing station (BioTek Instruments, USA). After additional 30 min, absorbance was read using a Biotek Hybrid H4 reader (BioTek Instruments, USA) at 540 nm wavelength. MTT assay was used alternatively for HL-60 cell line and in the experiment in which estrogens are added (specified in the table legend). Absorbance was measured using a Biotek Hybrid H4 reader at 570 nm wavelength for MTT assay.
(§3) Compounds at each concentration were tested in triplicate in a single experiment and each experiment was repeated at least three times independently. Results are presented as mean IC50±SD.
A general note: The SRB assay estimates cell density from bound dye.

The subject of data set [3] is CaCo-2. Description: Sulforhodamine B antiproliferative assay, 72 h, Caco-2. In kind it is cell-based, human. As to conditions: normal (21% of oxygen), 72 hours exposition.
Description: In the experiment, cells were seeded on 96-well plates (Sarstedt, Germany) in appropriate culture medium at a density of 10^5 cells/mL 24 h before adding the tested compounds. Cells were treated with each compound in four concentrations in the range 0.1-100 μg/mL. […] Briefly, cells were fixed with 50 μL/well of 50% (w/v) trichloroacetic acid (Avantor Performance Materials, Gliwice, Poland). After 1 h incubation, plates were washed several times with tap water and 50 μL of 0.4% (w/v) solution of sulforhodamine B (Sigma-Aldrich, Germany) in 1% (v/v) acetic acid (Avantor Performance Materials, Gliwice, Poland) was added to each well. After 30 min incubation at room temperature, unbound dye was washed out with 1% (v/v) acetic acid, whereas bound dye was solubilized with 10 mM unbuffered TRIS (Avantor Performance Materials, Gliwice, Poland) solution. […] After additional 30 min, absorbance was read using a Biotek Hybrid H4 reader (BioTek Instruments, USA) at 540 nm wavelength.
Data set [4] relates to MCF-7. The data set is described as follows: Sulforhodamine B antiproliferative assay, 72 h, normal/hypoxia, MCF-7. It is filed as cell-based, human. As to conditions: for IC50 [μg/ml] MCF-7 hypoxia / IC50 [μg/ml] MCF-7 normal / IC50: 72 hours exposition; for IC50: Homo sapiens, MCF7. The procedure:
as §2, §3

In data set [5] the test system is HT-29. The data set is described as follows: Sulforhodamine B antiproliferative assay, 72 h, HT-29. The conditions noted are these: normal (21% of oxygen), 72 hours exposition. It is filed as cell-based, human. On the procedure: as §2, §3
The target of data set [6] is T1, PDI A3 (Homo sapiens, UniProt P30101).
T1 construct: purchased Mybiosource; host or cells: E. coli
T1 sequence (P30101 25-505): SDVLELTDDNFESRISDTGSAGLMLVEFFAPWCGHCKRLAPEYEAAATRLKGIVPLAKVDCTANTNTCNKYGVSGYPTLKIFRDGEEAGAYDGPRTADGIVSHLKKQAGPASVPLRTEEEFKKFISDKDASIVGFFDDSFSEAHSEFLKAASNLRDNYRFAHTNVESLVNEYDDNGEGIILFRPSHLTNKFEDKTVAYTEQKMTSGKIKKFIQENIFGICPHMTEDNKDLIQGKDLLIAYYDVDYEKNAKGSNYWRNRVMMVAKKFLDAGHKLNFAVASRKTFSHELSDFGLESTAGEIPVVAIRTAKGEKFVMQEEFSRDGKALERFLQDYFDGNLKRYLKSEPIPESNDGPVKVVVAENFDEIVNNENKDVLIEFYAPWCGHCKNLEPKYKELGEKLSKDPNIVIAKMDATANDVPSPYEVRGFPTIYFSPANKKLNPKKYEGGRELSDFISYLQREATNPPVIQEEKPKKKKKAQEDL
Description: PDI A3 inhibition, insulin turbidimetric assay. In kind it is biochemical. As to conditions: 10 ug/ml PDI A3, incubated 60 min at 37° C., turbidity at 650 nm; read-out: Inhibition of PDI A3 (EC 50). The procedure: The inhibitory effects compounds of invention on activity of PDIA3 was assess based on the insulin turbidimetric assay. Enzymatic activity of PDIA3 was confirmed by measuring the turbidity increase at 650 nm due to insulin reduction. The assay mixture was prepared by addition 10 ug/ml PDI A3 (E. coli recombinant protein; Mybiosource), […] phosphate buffer (pH7.6), 1 mM EDTA, 0.087 mM DTT and with or without tested compound and was incubated for 60 min, at 37° C. Reaction was started by addition of insulin and DTT. Final concentration of insulin and DTT in assay mixture were 0.15 mMv and 0.174 mMv, respectively. Turbidity was detected at 650 nm against reference samples without PDJs. The measurements were performed at 650 nm using 120-s recordings.

Data set [7] concerns MCF-7. Description: MTT antiproliferative assay, 48 h, MCF-7. In kind it is cell-based, human. The procedure:
as §1
In general terms: Tetrazolium dyes change colour on reduction, which living cells bring about.

Data set [8] relates to CaCo-2. Description: MTT antiproliferative assay, 48 h, Caco-2. It is filed as cell-based, human. On the procedure: as §1

Structures are written as SMILES. Values after ≈ are worked out from the molar mass of the structure shown.

`COC(=O)C1CN1S(=O)(=O)c1ccc2cc(N(C)C)ccc2c1` (centres unmarked) [Compound C-3397, Methyl 1-[[6-(dimethylamino)-2-naphthyl]sulfonyl]aziridine-2-carboxylate]: the IC50 in data set [1] was 38 ± 2 µM.

Regarding `COC(=O)C1CN1S(=O)(=O)c1ccccc1C` (centres unmarked) [Compound C-3320, Methyl 1-(o-tolylsulfonyl)aziridine-2-carboxylate], the IC50 in [1] came to 380 ± 15 µM.

On to `CCCCCCc1ccc(S(=O)(=O)N2CC2C(=O)N2CCOCC2)cc1` (centres unmarked) [Compound C-3517, [1-(4-Hexylphenyl)sulfonylaziridin-2-yl]-morpholino-methanone], for which the IC50 in data set [1] was found to be 12 ± 1 µM.

Turning to `COc1ccc(N2C(=O)/C(=C\c3ccc([N+](=O)[O-])s3)SC2=S)cc1` [CCF642], the “IC50 [μg/ml] MDA-MB-231 hypoxia” value in [2] (hypoxia (<1% of oxygen)) is 0.3 ± 0.2 µg/mL (≈ 0.793 µM). The “IC50 [μg/ml] MDA-MB-231 normal” value in data set [2] (normal (21% of oxygen)) is 0.3 ± 0.1 µg/mL (≈ 0.793 µM). The “IC50 [μg/ml] Caco-2 normal” value in data set [3] stood at 0.4 ± 0.1 µg/mL (≈ 1.06 µM). Also, in [4] (hypoxia (<1% of oxygen)), the “IC50 [μg/ml] MCF-7 hypoxia” value was determined as 0.6 ± 0.6 µg/mL (≈ 1.59 µM). Further, the “IC50 [μg/ml] MCF-7 normal” value in [4] (normal (21% of oxygen)) is 0.7 ± 0.5 µg/mL (≈ 1.85 µM). In addition, the “IC50 [μg/ml] HT-29 normal” value in data set [5] is 0.4 ± 0.05 µg/mL (≈ 1.06 µM).

For the compound `CN(C)C(=O)C1CN1S(=O)(=O)c1cccc2cc(N(C)C)ccc12` (centres unmarked) [Compound C-3377, 1-[[6-(Dimethylamino)-1-naphthyl]sulfonyl]-N,N-dimethylaziridine-2-carboxamide], in data set [6], the EC50 came to 4.3 µM. Further, in data set [7] (Homo sapiens, MCF7, 48-hour exposition, read-out: Cytotoxicity, IC50, μM MCF-7), the IC50 amounted to 4.8 ± 0.1 µM.

As to `O=C(C1CC1)N1CCN(Cn2sc3ccccc3c2=O)CC1` [LOC14], the “IC50 [μg/ml] MDA-MB-231 hypoxia” value in [2] (hypoxia (<1% of oxygen)) is 2.6 ± 0.5 µg/mL (≈ 8.19 µM). Moreover, in [2] (normal (21% of oxygen)), the “IC50 [μg/ml] MDA-MB-231 normal” value was determined as 2.8 ± 0.4 µg/mL (≈ 8.82 µM). In addition, the “IC50 [μg/ml] Caco-2 normal” value in [3] is 9.1 ± 3.4 µg/mL (≈ 28.7 µM). Besides, the “IC50 [μg/ml] MCF-7 hypoxia” value in data set [4] (hypoxia (<1% of oxygen)) turned out to be 3.9 ± 0.3 µg/mL (≈ 12.3 µM). Besides, the “IC50 [μg/ml] MCF-7 normal” value in [4] (normal (21% of oxygen)) was 4.4 ± 0.9 µg/mL (≈ 13.9 µM). For the same compound, the “IC50 [μg/ml] HT-29 normal” value in data set [5] is 12.6 ± 8.4 µg/mL (≈ 39.7 µM).

For `N.N.[Cl][Pt][Cl]` [Cisplatin], the “IC50 [μg/ml] MDA-MB-231 hypoxia” value in data set [2] (hypoxia (<1% of oxygen)) stood at 3.1 ± 0.9 µg/mL. The “IC50 [μg/ml] MDA-MB-231 normal” value in data set [2] (normal (21% of oxygen)) came out at 3.2 ± 0.5 µg/mL. Moreover, the “IC50 [μg/ml] MCF-7 hypoxia” value in data set [4] (hypoxia (<1% of oxygen)) is 1.3 ± 0.5 µg/mL. In [4] (normal (21% of oxygen)), the “IC50 [μg/ml] MCF-7 normal” value was found to be 1.8 ± 0.3 µg/mL. Moreover, the “IC50 [μg/ml] HT-29 normal” value in [5] came to 2.82 ± 0.6 µg/mL.

`CN(C)c1ccc2c(S(=O)(=O)N3CC3C(N)=O)cccc2c1` (centres unmarked) [Compound C-3459, 1-[[6-(Dimethylamino)-1-naphthyl]sulfonyl]aziridine-2-carboxamide] displayed a melting point of 197 to 199 °C. For the same compound, the EC50 in data set [6] was 130 µM. For the same compound, in [7] (48-hour exposition), the “Cytotoxicity, IC50, μM MCF-7” value is reported as “n.e”. Moreover, the “Cytotoxicity, IC50, μM MDA-MB-231” value in data set [1] (48-hour exposition) is “n.e”. In data set [8] (48-hour exposition), the “Cytotoxicity, IC50, μM CaCo-2” value is recorded as “n.e”.

As to `COC(=O)C1CN1S(=O)(=O)c1ccc2cc(OC)ccc2c1` (centres unmarked) [Compound C-3327, Methyl 1-[(6-methoxy-2-naphthyl)sulfonyl]aziridine-2-carboxylate], in data set [8] (Homo sapiens, Caco-2, 48-hour exposition, read-out: Cytotoxicity, IC50, μM CaCo-2), the IC50 was 150 ± 10 µM.

For the compound `NC(=O)C1CN1S(=O)(=O)c1ccc([N+](=O)[O-])cc1` (centres unmarked) [Compound C-3216, 1-(4-Nitrophenyl)sulfonylaziridine-2-carboxamide], the IC50 turned out to be 6.2 ± 3.7 µg/mL (≈ 22.9 µM) in [2] (hypoxia (<1% of oxygen), read-out: IC50 [μg/ml] MDA-MB-231 hypoxia); 5 ± 1.4 µg/mL (≈ 18.4 µM) in [2] (normal (21% of oxygen), read-out: IC50 [μg/ml] MDA-MB-231 normal); 4.5 ± 0.8 µg/mL (≈ 16.6 µM) in [3] (Homo sapiens, Caco-2, read-out: IC50 [μg/ml] Caco-2 normal); 3.6 ± 0.3 µg/mL (≈ 13.3 µM) in data set [4] (hypoxia (<1% of oxygen), read-out: IC50 [μg/ml] MCF-7 hypoxia); 3.7 ± 0.4 µg/mL (≈ 13.6 µM) in [4] (normal (21% of oxygen), read-out: IC50 [μg/ml] MCF-7 normal); 5.6 ± 0.9 µg/mL (≈ 20.6 µM) in data set [5] (Homo sapiens, HT-29, read-out: IC50 [μg/ml] HT-29 normal). Further, the “Antiproliferative effect, normoxic versus hypoxic conditions” value in [4] (MCF-7 and MDA-MB-231, Table 3) is listed as “comparable”.
